Earlier results, collected in patent US20260199285A1, “TAXANE FORMULATIONS” (BIOPURIFICATION, LLC, priority 2022, published 2026).

Legend:
[1] = tested on: advanced breast carcinoma

## CC(=O)O[C@@]12CO[C@@H]1C[C@H](O)[C@@]1(C)C(=O)[C@H](O)C3=C(C)[C@@H](OC(=O)[C@H](O)[C@@H](NC(=O)OC(C)(C)C)c4ccccc4)C[C@@](O)([C@@H](OC(=O)c4ccccc4)[C@H]21)C3(C)C [docetaxel]
Tubulin depolymerization
  inhibitory activity of tubulin depolymerization relative to paclitaxel: about 2 times
[1]
  effective ratio for treatment of advanced breast carcinoma: 49%
